“And” between values parts separate entries of the source, which are not always exact repeats. Identical values can stand only once. “Also recorded” adds a separate entry of the source.
Assays:
[1] = target: T1, xanthine oxidase (Homo sapiens, UniProt P47989); experiment: Xanthine oxidase metabolism of hypoxanthine (purines by HPLC); assay type: biochemical
Method: Hypoxanthine and its metabolites xanthine and uric acid were analyzed by HPLC at specific times during the xanthine oxidase: hypoxanthine reaction. The reaction was allowed to run for 40 or 100 minutes and was stopped by the addition of trifloroacetic acid (0.1% TFA) to denature xanthine oxidase. Samples were injected onto the HPLC and separated on a C18 column.

[2] = tested on: monkeys; conditions: mean survival 25 months; cited from earlier work
[3] = treated animals; cited from earlier work
[4] = Superoxide elimination: cytochrome c reduction (hypoxanthine/xanthine oxidase); assay type: biochemical; conditions: for IC50: superoxide from hypoxanthine/xanthine oxidase
Method: (a) Superoxide was generated by oxidation of hypoxanthine by xanthine oxidase and assayed by reduction of cytochrome c (at absorbance maximum […]).
The ability of C3 to eliminate superoxide radical was assessed using three separate methods. In the first, O2 ? was generated by metabolism of hypoxanthine by xanthine oxidase (reaction 1). O2 ? production was determined by following cytochrome c reduction (absorbance max 550 nm) on a microtiter platereader as described (Quick et al., 2000). Stock solutions of cytochrome c were evaluated on a Beckman DU650 spectrophotometer to verify that that cytochrome c stock was fully oxidized prior to use, and to confirm the concentration of the stock. The reaction was run in the presence of superoxide dismutase (bovine SOD1, Sigma) to determine the non-specific reduction of cytochrome c (i.e. the rate of reaction in the absence of O2 ? ).

[5] = Characterization of C3 after exposure to H2O2 (HPLC, spectroscopy); assay type: physicochemical; conditions: H2O2 20-200 mM; HPLC and spectroscopy
[6] = target: T1, xanthine oxidase; experiment: O2 consumption during the xanthine oxidase reaction (Clark-type O2 electrode); assay type: biochemical; conditions: in the presence of C3 compared with SOD
Method: O2 consumption during the xanthine oxidase reaction was determined using an oxymetry chamber equipped with a Clark-type O2 electrode (Hansatech, UK).

[7] = Characterization of C3 after exposure to superoxide (HPLC, mass spectrometry); assay type: physicochemical
Source text: Samples were then immediately injected onto the HPLC.
To maximize the amount of modified C3 present should structural changes occur, hexacarboxylic acid C3 and its decarboxylation products were exposed to superoxide generated by the xanthine oxidase reaction for four consecutive reactions by re-addition of the substrate, hypoxanthine. […] Compounds were extracted from the reaction mixture, and re-injected onto the HPLC. […] Peaks were collected and evaluated by mass spectrometry, but no changes in the molecular ions were observed.

[8] = Pharmacokinetics study in mice; assay type: in vivo
Source text: […]. […] […].

[9] = Inhibition of pyrogallol autoxidation to purpurogallin; assay type: biochemical
Method: Pyrogallol autooxidation to purpurogallin was assayed as described. Briefly, Tris-cacodylic acid buffer (55.6 mM) buffer, pH 8.2, was prepared with 1 mM diethyltriaminopentaacetic acid (DTPA) (TCB solution). The pyrogallol solution contained 10 mM pyrogallol in 10 mM HCl. To 0.9 ml of TCB, 0.1 ml of pyrogallol solution was added, rapidly vortexed, and placed in the cuvette. The increase in absorbance at 420 nm was followed for 60 sec in a Beckman DU 650 spectrophotometer at room temperature. The rate of pyrogallol autoxidation in the presence of SOD (100 U/ml) was subtracted from that of the control reaction without SOD to determine the rate that was specifically due to reaction with O2 ? .

[10] = Oxygen consumption studies with H2O2 (re-evolution of oxygen); assay type: biochemical
[11] = tested on: C57B6NIH male and female mice; experiment: Longevity trial with mice (Kaplan-Meier survival, weights); assay type: in vivo
Method: FIG. 4 illustrates the survival curve for mice treated by the process of the instant invention vs. control. […]. The date of spontaneous death for each mouse was recorded, and used to calculate the lifespan. Lifespan of each mouse was calculated in months because mice received from the NIA rodent colony have their birth month, but not their specific birth date, recorded. Average survival was calculated for each treatment and the mean lifespans were compared using a t-test with significance set to p<0.05 (actual p=0.033). The lifespan of control mice was 23.5±5.5 months (mean±SD, n=8) and of C3-treated mice was 28.7±3.4 (mean±SD, n=9). This calculation includes one C3-treated mouse which is still alive as of Feb. 21, 2002, and whose lifespan was included as of this date. Continued survival by this mouse will further increase the average difference in lifespan, and will decrease the p value (increase the significance). […].
Twelve month old C57B6NIH male and female mice (equal numbers) were purchased from the National Institute on Aging (NIA) Aging Rodent Colony. Mice shipped from this colony were not selected in any way for health, tumors or other disabilities, and all mice obtained from the colony were subsequently enrolled in the study. Mice were randomly placed in same-sex numbered cages, two per cage, ear-punched for identification, and weighed. Mice were then trained on a rotorod twice per week for three sessions, and were then tested on the rotorod in three sessions to measure motor performance at baseline. Cages were then assigned to receive either treatment A or treatment B by an observer who was blind to what these treatments would be.
Solution A or solution B was placed in the water bottles, and solutions were topped-off twice weekly, and filtered to remove any particulates biweekly by an individual blind to the identity of the solutions. At 19 months of age, mice were weighed again, and underwent another round of rotorod training and testing. Mice were allowed to die spontaneously, and their date of death were recorded by the Animal Housing Facility staff as part of the normal operating procedure of the facility. […] When animals died, the cage number, identity of the animal, and the date of death were recorded on the death notice, which was then sent to the laboratory, where the information was entered into the database.
In addition, because longevity was increased by the oral dosing of a drug, it is the first practical method for achieving increased longevity in metazoans.

[12] = tested on: rats; conditions: rats treated from age 96 weeks through end of life; control 147+/−1; cited from earlier work
[13] = tested on: C57B6 mice; conditions: chronic treatment starting at 18 months of age; cited from earlier work
[14] = tested on: Fisher 344 rats; conditions: cited from earlier work
[15] = tested on: Drosophila; conditions: cited from earlier work
[16] = tested on: Fisher 344 rats; conditions: same dose; cited from earlier work

T1 sequence (P47989 whole entry, species assumed): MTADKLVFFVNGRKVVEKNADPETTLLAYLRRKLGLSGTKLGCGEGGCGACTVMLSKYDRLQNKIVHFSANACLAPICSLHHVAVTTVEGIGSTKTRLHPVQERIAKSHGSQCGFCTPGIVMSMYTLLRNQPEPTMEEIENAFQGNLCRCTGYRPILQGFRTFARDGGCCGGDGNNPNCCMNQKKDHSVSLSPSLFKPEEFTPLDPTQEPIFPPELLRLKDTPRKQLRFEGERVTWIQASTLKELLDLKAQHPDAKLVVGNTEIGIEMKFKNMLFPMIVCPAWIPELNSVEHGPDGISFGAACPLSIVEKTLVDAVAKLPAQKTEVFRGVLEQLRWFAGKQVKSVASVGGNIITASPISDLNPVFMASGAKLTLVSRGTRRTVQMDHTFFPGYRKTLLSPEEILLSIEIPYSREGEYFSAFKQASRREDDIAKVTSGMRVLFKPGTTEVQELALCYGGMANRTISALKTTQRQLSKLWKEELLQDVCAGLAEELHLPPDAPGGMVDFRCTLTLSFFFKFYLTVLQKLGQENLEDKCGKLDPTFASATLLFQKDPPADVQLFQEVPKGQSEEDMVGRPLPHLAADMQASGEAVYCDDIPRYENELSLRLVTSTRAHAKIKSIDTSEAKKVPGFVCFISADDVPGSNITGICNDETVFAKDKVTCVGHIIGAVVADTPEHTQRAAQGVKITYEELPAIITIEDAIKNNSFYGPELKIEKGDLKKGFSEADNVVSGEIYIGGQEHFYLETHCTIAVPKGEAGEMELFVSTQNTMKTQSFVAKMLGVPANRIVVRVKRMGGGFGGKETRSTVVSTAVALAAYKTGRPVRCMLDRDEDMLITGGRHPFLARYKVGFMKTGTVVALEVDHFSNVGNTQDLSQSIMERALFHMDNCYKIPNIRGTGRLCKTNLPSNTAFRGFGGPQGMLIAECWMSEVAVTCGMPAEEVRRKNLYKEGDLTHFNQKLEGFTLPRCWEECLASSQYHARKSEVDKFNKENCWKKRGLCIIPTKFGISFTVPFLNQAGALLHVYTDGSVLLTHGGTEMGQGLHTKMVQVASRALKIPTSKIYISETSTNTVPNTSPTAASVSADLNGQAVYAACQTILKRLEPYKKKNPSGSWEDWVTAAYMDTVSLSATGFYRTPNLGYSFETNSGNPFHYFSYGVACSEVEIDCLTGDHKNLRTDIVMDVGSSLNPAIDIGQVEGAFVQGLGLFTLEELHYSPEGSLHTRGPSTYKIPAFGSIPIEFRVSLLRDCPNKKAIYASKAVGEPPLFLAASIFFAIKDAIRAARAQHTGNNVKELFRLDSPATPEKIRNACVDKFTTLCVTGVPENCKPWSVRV

O=c1[nH]c(=O)c2c[nH]nc2[nH]1 [Oxypurinol, reference compound]
inhibition of purine metabolism ([1]; concentrations similar to those previously reported (data not shown)): completely inhibit

O=CC[C@@H](O)[C@H](O)[C@H](O)CO [2-deoxyglucose]
lifespan of one treated monkey [2]: 38 months
body temperature [3]: lowered
plasma insulin levels [3]: decreased

O=C(O)c1ccc(/C2=C3\C=CC(=N3)/C(c3ccc(C(=O)O)cc3)=c3/cc/c4[n]3[Mn]([Cl])[n]3c2ccc3/C(c2ccc(C(=O)O)cc2)=C2/C=CC(=N2)\C=4c2ccc(C(=O)O)cc2)cc1 [MnTBAP, reference compound]
IC50 [4]: 50 µM

e,e,e C60[C(COOH)2]3 [C3]
concentration of superoxide in the reaction ([4]; 500 μM): zero
IC50 [4]: 330 µM
structural change after exposure to H2O2 [5]: No change; also recorded: no change in the size or distribution of peaks; also recorded: no permanent chemical or structural changes
oxygen utilization by xanthine oxidase [6]: similar
structural change after exposure to superoxide [7]: No change in the size or distribution of peaks; also recorded: no permanent chemical or structural changes
plasma half-life ([8]; mice): 8 h
route of clearance ([8]; mice): excretion through both the liver and kidney
fraction of dose absorbed when given orally ([8]; oral (e.g. drinking water) relative to intravenous, intraperitoneal or subcutaneous): 1/15
IC50 [9]: 360 µM
inhibition of xanthine oxidase metabolism of hypoxanthine ([1]; 300 μM): < 10%
inhibition of xanthine oxidase metabolism of hypoxanthine ([1]; 500 μM): 15%
re-evolution of oxygen from H2O2 [10]: significantly slower than that seen with catalase
effect on weight ([11]; C3-treated mice): not accompanied by a reduction in weight
lifespan (mean±SD) ([11]; C57B6 mice, C3 0.5 mg/kg/day in drinking water from age 12 months through end of life, n=9, control 23.5±5.5, 0.5 mg/kg/day): 28.7±3.4 months and 28.7 months
weight at 19 months, females ([11]; females, control 27±1): 29+1 grams
weight at 19 months, males ([11]; males, control 35±4): 35±6 grams

SOD: superoxide dismutase (bovine SOD1, Sigma) [reference compound]
Reaction rate (k) ([4]; reaction with superoxide, cytochrome c reduction): 2e+09 M⁻¹ s⁻¹
IC50 [4]: 0.5 µM

catalase [reference compound]
re-evolution of oxygen from H2O2 [10]: rapid re-evolution of oxygen

C#CCN(C)[C@H](C)Cc1ccccc1 [deprenyl]
lifespan [12]: 198+/−2 weeks
survival benefit [13]: failed to show any survival benefit
increase in longevity ([14]; not statistically significant): 7%
mean survival ([14]; treatment from 18 months of age, controls 28): 30 months
effect on lifespan [15]: did not show an increase in lifespan
effect on mortality and lifespan [16]: greater mortality and shortened lifespan

Reference: patent US20030162837A1, “Carboxyfullerenes and methods of use thereof” (priority 2002, published 2003)
